According to ChEMBL document CHEMBL4043168, “The design and SAR of a novel series of 2-aminopyridine based LRRK2 inhibitors” (Bioorg Med Chem Lett, 2017):

What was measured:
[1] = target: T1, STE20-related kinase adapter protein alpha (Homo sapiens) (UniProt Q7RTN6); test: Inhibition of STLK5 conserved Lys2 (SVKASHILISVDGK) in human PBMC at 0.1 uM
T1 sequence (whole entry): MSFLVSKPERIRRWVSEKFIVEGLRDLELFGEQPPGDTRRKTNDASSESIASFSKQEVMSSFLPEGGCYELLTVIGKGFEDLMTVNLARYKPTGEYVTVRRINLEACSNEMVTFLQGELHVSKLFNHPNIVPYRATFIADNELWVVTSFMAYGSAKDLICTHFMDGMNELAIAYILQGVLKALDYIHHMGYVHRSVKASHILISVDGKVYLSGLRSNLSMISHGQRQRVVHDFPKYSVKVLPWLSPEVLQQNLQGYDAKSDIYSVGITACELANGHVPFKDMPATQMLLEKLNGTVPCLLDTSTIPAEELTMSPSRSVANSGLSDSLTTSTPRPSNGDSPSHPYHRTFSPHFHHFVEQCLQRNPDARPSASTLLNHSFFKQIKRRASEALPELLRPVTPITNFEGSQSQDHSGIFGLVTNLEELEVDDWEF

[2] = target: MAP kinase-activated protein kinase 3 (Homo sapiens) (UniProt Q16644); test: Inhibition of MAPKAPK3 ATP binding site (QVLGLGVNGKVLECFHR) in human PBMC at 1 uM
Sequence of MAP kinase-activated protein kinase 3 (Homo sapiens) (Q16644 whole entry, looked up): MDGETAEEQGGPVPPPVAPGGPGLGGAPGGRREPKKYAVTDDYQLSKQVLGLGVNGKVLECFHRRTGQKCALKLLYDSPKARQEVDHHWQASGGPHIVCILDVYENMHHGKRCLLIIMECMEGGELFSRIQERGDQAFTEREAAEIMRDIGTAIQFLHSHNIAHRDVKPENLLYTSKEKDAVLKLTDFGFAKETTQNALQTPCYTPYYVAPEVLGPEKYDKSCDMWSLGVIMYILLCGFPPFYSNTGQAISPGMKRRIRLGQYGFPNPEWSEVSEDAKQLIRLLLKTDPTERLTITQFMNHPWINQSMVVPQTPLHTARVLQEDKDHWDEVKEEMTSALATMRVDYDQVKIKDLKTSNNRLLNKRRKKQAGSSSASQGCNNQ

[3] = target: Calcium/calmodulin-dependent protein kinase type II subunit gamma (Homo sapiens) (UniProt Q13555); test: Inhibition of CaMK2g labeling at conserved Lys2 (DLKPENLLLASK) in human PBMC at 1 uM
Sequence of Calcium/calmodulin-dependent protein kinase type II subunit gamma (Homo sapiens) (Q13555 whole entry): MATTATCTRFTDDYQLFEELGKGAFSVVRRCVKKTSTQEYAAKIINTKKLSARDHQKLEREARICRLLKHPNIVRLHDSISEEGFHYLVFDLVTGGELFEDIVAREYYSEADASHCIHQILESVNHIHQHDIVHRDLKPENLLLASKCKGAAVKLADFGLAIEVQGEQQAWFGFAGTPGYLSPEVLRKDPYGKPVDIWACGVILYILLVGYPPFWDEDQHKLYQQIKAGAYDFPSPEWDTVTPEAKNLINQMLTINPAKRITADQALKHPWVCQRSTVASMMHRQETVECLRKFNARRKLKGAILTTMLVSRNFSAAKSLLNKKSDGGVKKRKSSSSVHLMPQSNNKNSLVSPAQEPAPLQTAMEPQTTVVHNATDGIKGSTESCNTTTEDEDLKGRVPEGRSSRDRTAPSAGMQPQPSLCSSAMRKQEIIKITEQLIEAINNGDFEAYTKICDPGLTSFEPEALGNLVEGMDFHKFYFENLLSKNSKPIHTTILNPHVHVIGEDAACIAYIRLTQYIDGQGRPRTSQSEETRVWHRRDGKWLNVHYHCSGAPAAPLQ

[4] = target: Glycogen synthase kinase-3 beta (Homo sapiens) (UniProt P49841); test: Inhibition of GSK3B conserved Lys2 (DIKPQNLLLDPDTAVLK) in human PBMC at 0.1 uM
Sequence of Glycogen synthase kinase-3 beta (Homo sapiens) (P49841 whole entry, looked up): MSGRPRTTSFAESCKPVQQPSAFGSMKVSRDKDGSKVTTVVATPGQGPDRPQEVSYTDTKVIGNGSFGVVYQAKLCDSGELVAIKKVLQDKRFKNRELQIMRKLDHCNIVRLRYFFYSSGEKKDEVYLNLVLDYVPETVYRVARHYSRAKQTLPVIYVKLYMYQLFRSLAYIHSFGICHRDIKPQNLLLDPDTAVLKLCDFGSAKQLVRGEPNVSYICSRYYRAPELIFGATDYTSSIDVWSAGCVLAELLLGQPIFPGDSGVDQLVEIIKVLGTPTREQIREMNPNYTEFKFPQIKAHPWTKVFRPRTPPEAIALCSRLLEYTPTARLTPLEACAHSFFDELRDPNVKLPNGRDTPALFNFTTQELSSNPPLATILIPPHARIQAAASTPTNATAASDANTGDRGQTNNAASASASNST

[5] = target: T2, Serine/threonine-protein kinase 3 (Homo sapiens) (UniProt Q13188); test: Inhibition of MST2 conserved Lys2 (DIKAGNILLNTEGHAK) in human PBMC at 1 uM
T2 sequence (whole entry): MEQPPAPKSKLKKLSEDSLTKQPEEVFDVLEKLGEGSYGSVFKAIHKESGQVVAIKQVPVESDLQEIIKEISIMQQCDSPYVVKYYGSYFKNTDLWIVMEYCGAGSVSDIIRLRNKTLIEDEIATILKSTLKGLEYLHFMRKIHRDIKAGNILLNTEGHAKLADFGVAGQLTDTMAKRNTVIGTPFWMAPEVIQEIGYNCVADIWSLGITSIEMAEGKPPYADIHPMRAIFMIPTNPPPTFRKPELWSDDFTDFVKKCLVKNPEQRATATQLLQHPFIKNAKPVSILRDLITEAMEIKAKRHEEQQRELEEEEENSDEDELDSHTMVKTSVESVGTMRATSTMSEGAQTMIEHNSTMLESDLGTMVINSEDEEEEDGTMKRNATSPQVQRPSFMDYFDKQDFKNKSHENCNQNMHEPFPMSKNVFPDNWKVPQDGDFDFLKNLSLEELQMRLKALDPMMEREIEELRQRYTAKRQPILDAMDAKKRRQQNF

[6] = target: T3, Serine/threonine-protein kinase ULK3 (Homo sapiens) (UniProt Q6PHR2); test: Inhibition of ULK3 conserved Lys1 (EVVAIKCVAK) in human PBMC at 0.1 uM
T3 sequence (whole entry): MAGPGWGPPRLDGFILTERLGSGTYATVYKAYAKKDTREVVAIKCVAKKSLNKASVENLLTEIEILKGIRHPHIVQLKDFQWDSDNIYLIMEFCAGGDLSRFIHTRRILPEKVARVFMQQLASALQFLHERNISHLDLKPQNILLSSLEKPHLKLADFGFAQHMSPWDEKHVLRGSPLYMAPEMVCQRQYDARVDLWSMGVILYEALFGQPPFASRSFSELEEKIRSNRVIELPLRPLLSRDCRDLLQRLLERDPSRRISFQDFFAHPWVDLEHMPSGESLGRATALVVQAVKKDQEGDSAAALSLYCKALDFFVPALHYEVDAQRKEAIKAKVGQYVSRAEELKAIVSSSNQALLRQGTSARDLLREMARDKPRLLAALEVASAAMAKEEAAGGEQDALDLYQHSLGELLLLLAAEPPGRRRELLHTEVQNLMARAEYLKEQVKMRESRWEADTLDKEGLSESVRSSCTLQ

[7] = target: Cyclin-dependent kinase 17 (Homo sapiens) (UniProt Q00537); test: Inhibition of PCTAIRE2 conserved Lys2 (DLKPQNLLINEK) in human PBMC at 0.1 uM
Sequence of Cyclin-dependent kinase 17 (Homo sapiens) (Q00537 whole entry, looked up): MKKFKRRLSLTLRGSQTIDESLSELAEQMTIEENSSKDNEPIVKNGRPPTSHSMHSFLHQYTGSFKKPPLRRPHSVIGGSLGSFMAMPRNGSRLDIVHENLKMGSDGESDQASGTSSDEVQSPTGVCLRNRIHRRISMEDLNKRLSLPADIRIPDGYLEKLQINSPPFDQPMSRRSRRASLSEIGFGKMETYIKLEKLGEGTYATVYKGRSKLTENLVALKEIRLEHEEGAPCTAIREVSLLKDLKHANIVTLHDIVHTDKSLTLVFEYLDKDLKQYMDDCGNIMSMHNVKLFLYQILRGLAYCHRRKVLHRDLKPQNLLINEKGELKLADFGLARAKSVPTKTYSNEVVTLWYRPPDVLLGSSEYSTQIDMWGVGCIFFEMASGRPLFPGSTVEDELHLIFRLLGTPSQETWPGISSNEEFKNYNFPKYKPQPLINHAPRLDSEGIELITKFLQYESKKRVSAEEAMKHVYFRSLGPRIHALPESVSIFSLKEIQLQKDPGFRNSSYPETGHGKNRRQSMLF

[8] = target: Serine/threonine-protein kinase Chk2 (Homo sapiens) (UniProt O96017); test: Inhibition of CHK2 labeling at conserved Lys1 (VAIKIISK) in human PBMC at 1 uM
Sequence of Serine/threonine-protein kinase Chk2 (Homo sapiens) (O96017 whole entry): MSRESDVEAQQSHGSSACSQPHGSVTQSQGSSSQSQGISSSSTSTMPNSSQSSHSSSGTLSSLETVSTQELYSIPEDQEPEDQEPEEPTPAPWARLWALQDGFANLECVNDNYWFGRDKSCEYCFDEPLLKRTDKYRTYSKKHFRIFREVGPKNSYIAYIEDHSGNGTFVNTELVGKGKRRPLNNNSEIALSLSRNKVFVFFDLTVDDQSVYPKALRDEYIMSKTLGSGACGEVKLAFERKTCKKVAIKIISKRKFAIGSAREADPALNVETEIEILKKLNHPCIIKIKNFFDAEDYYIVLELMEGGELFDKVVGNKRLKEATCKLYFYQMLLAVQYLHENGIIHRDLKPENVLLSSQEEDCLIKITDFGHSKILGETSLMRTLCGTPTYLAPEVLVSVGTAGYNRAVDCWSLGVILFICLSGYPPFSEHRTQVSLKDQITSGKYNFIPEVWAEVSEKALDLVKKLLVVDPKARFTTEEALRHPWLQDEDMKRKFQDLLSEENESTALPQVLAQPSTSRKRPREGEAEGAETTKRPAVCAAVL

[9] = target: Tyrosine-protein kinase HCK (Homo sapiens) (UniProt P08631); test: Inhibition of HCK activation Loop (EGAKFPIKWTAPEAINFGSFTIK) in human PBMC at 0.1 uM
Sequence of Tyrosine-protein kinase HCK (Homo sapiens) (P08631 2-526 limits assumed): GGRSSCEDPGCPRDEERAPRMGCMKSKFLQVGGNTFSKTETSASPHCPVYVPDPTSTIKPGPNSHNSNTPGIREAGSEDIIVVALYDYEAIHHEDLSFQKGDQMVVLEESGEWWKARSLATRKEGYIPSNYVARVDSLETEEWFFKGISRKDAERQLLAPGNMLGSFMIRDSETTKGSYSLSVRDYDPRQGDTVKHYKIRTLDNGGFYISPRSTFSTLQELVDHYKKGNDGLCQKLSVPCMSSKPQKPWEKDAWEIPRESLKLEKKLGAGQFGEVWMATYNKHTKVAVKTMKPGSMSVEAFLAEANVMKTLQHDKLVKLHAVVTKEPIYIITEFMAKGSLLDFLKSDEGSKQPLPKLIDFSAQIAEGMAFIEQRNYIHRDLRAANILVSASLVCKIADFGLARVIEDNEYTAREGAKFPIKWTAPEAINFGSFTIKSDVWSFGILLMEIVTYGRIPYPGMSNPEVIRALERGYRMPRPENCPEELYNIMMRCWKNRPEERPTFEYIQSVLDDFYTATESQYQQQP

[10] = target: Inhibitor of nuclear factor kappa-B kinase subunit beta (Homo sapiens) (UniProt O14920); test: Inhibition of IKKb conserved Lys2 (DLKPENIVLQQGEQR) in human PBMC at 0.1 uM
Sequence of Inhibitor of nuclear factor kappa-B kinase subunit beta (Homo sapiens) (O14920 whole entry): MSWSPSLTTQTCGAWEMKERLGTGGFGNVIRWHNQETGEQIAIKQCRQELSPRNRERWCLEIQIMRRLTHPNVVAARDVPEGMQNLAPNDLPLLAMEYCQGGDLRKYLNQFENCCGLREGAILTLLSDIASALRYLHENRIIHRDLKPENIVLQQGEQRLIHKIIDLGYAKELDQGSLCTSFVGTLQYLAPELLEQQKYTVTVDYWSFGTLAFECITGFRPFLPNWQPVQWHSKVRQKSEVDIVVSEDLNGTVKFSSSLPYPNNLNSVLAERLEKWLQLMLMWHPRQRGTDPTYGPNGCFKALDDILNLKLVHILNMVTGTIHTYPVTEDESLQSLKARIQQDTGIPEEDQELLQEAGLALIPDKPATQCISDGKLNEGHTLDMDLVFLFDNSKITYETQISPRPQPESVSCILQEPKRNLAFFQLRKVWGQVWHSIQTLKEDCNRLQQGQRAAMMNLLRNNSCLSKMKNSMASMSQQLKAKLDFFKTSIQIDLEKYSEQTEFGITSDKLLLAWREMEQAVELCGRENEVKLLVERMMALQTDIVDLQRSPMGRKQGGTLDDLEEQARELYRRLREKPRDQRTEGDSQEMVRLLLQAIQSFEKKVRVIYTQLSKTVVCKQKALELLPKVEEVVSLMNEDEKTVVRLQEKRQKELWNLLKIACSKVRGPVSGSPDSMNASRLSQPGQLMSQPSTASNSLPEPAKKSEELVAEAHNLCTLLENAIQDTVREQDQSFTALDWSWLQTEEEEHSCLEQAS

[11] = target: T4, Serine/threonine-protein kinase 4 (Homo sapiens) (UniProt Q13043); test: Inhibition of MST1 conserved Lys2 (DIKAGNILLNTEGHAK) in human PBMC at 0.1 uM
T4 sequence (whole entry): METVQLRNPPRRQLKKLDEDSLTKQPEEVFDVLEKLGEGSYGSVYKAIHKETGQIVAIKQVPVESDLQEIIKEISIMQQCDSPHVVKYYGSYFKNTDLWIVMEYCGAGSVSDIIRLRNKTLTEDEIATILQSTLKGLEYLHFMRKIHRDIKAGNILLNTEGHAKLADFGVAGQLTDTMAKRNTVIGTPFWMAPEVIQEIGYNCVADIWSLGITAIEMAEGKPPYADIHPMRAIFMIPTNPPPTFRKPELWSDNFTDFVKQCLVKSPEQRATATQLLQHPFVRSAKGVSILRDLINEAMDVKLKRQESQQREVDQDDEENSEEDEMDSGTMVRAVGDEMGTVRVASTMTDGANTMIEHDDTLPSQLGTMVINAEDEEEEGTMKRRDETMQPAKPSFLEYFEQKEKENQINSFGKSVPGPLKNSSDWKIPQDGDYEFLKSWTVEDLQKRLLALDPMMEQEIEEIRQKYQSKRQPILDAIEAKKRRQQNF

[12] = target: eIF-2-alpha kinase GCN2 (Homo sapiens) (UniProt Q9P2K8); test: Inhibition of GCN2 conserved Lys2 (DLKPVNIFLDSDDHVK) in human PBMC at 1 uM
[13] = target: Ribosomal protein S6 kinase alpha-2 (Homo sapiens) (UniProt Q15349); test: Inhibition of RSK3 domain1 conserved Lys2 (DLKPENILLDEEGHIK) in human PBMC at 0.1 uM
Sequence of Ribosomal protein S6 kinase alpha-2 (Homo sapiens) (Q15349 whole entry, the tested form may be a part): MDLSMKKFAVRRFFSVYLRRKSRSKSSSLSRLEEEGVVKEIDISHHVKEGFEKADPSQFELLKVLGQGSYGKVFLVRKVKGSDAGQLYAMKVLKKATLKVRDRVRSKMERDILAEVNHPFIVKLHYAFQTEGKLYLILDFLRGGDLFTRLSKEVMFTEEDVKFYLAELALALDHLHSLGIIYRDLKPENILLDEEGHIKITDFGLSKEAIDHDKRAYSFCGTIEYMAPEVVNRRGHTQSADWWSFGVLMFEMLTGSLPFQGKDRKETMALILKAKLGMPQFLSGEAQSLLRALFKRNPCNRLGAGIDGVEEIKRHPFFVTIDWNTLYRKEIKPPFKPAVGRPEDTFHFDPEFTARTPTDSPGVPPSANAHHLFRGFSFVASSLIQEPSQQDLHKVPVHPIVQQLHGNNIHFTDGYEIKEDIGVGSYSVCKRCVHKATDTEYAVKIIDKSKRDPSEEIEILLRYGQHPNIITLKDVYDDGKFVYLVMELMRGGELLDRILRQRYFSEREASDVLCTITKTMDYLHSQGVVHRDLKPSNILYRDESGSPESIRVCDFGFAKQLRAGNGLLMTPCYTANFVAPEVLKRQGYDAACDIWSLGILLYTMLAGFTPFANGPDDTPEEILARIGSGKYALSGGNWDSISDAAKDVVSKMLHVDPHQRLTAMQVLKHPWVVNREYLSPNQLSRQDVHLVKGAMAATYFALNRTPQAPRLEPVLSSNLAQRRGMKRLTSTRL

## CC(C)n1cc(-c2cc(-c3ccc(CN4CCOCC4)cc3)cnc2N)nn1
[1]
  inhibition: 26.2%
[2]
  inhibition: 2.5%
[3]
  inhibition: -0.4%
[4]
  inhibition: -10%
[5]
  inhibition: 0%
[6]
  inhibition: 20.3%
[7]
  inhibition: 21.7%
[8]
  inhibition: 9.1%
[9]
  inhibition: -7.4%
[10]
  inhibition: 1.5%
[11]
  inhibition: 1.3%
[12]
  inhibition: -2%
[13]
  inhibition: 11.8%
